In patent USRE47689E1, “Compounds for treating spinal muscular atrophy” (PTC Therapeutics, Inc., priority 2011, dated 2019):
Read-outs that look alike come from different tables or passages of the source.

Tests used:
[1] = tested on: SMN2 minigene (full length SMN2 minigene mRNA containing SMN2 exon 7); assay: SMN2 minigene mRNA splicing RT-qPCR assay in cultured cells; assay type: cell-based, human; details: for EC (1.5-fold): Homo sapiens, HEK293-H, read-out: EC1.5x for production of full length SMN2 mRNA
In short: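 Lysates → one-step RT-qPCR, minigene-specific primers (0.4 μM final) + GAPDH multiplex, 40 cycles. FL/GAPDH vs DMSO; EC1.5x, star-binned.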

Smn protein = Smn protein assay in cultured cells (SMN HTRF); assay type: cell-based, human; details: 48 hours; for maximum fold (Fold) increase of Smn protein: SMA patient fibroblast cells, 7-point concentration data, fold increase relative to vehicle control (SMN HTRF); for EC1.5x (concentration giving 1.5-fold Smn protein increase): SMA Type 1 patient fibroblast cells (GM03813), 7-point concentration curve, SMN HTRF, concentration producing 1.5 times Smn protein vs DMSO vehicle control, read-out: EC1.5x for Smn protein expression
In short: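 Smn in SMA fibroblast lysates, measured by anti-SMN HTRF after 48 h compound exposure; EC1.5x from fold change over vehicle.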

[2] = HEK293H cells stably transfected with SMN2-A minigene, 24 hours, 7-point concentration curve, 1.5-fold relative to vehicle-treated cells

Compound | melting point [°C] | EC (1.5-fold) [1, 2] [µM] | maximum fold (Fold) increase of Smn protein (Smn protein) | EC1.5x (concentration giving 1.5-fold Smn protein increase) (Smn protein) [nM] | EC1.5x for production of full length SMN2 mRNA [1, 2] | EC (1.5-fold) ([1]; 24 h) [µM]
CN1CCN(c2ccc3cc(-c4cccc(OC5CCC5)n4)c(=O)oc3c2)CC1 [Compound 415, 3-[6-(cyclobutyloxy)pyridin-2-yl]-7-(4-methylpiperazin-1-yl)-2H-chromen-2-one] | 158 to 160 | 3 to 30 | * (maximum fold increase of ≤1.2) | – | – | –
COc1ccc(-c2cc3ccc(N4C[C@@H](C)N[C@@H](C)C4)cc3oc2=O)cc1OC [Compound 384, 3-(3,4-dimethoxyphenyl)-7-[(3R,5S)-3,5-dimethylpiperazin-1-yl]-2H-chromen-2-one] | 130 to 132 | 3 to 30 | * (maximum fold increase of ≤1.2) | – | – | –
Cn1cc2cc(-c3cc4ccc(C5CCN(CCO)CC5)cc4oc3=O)ccc2n1 [Compound 861, 7-[1-(2-hydroxyethyl)piperidin-4-yl]-3-(2-methyl-2H-indazol-5-yl)-2H-chromen-2-one] | 220 to 226 | < 0.1 | ***** (fold increase >1.65) | 300 to 1000 | – | –
CN1CCN(c2cc(F)c3cc(-c4cn5ccccc5n4)c(=O)oc3c2)CC1 [Compound 422, 5-fluoro-3-(imidazo[1,2-a]pyridin-2-yl)-7-(4-methylpiperazin-1-yl)-2H-chromen-2-one] | 263 to 269 | 0.3 to 1 | ** (fold increase between >1.2 and ≤1.35) | – | – | –
O=c1oc2cc(CNC(CO)CO)ccc2cc1-c1nc2ccccc2s1 [Compound 99, 3-(1,3-benzothiazol-2-yl)-7-{[(1,3-dihydroxypropan-2-yl)amino]methyl}-2H-chromen-2-one] | 194 to 197 | 3 to 30 | * (maximum fold increase of ≤1.2) | – | – | –
Cc1cn2cc(-c3cc4ccc(C5CCN(C)CC5)cc4oc3=O)cnc2n1 [Compound 835, 3-(2-methylimidazo[1,2-a]pyrimidin-6-yl)-7-(1-methylpiperidin-4-yl)-2H-chromen-2-one] | 300 to 302 | 0.3 to 1 | ***** (fold increase >1.65) | 300 to 1000 | – | –
CCN(CC)CCc1ccc2cc(-c3cn4cc(C)nc(C)c4n3)c(=O)oc2c1 [Compound 968, 7-[2-(diethylamino)ethyl]-3-(6,8-dimethylimidazo[1,2-a]pyrazin-2-yl)-2H-chromen-2-one] | 190 to 193 | < 0.1 | ***** (fold increase >1.65) | < 300 | – | –
Cc1csc(-c2cc3ccc(N4CCN[C@H](C)C4)cc3oc2=O)n1 [Compound 300, 7-[(3R)-3-methylpiperazin-1-yl]-3-(4-methyl-1,3-thiazol-2-yl)-2H-chromen-2-one] | 176 | – | * (maximum fold increase of ≤1.2) | – | – | 1 to 3
O=c1oc2cc(N3CCCNCC3)cc(F)c2cc1-c1cn2cccnc2n1 [Compound 336, 7-(1,4-diazepan-1-yl)-5-fluoro-3-(imidazo[1,2-a]pyrimidin-2-yl)-2H-chromen-2-one] | 305 to 307 | 0.3 to 1 | * (maximum fold increase of ≤1.2) | – | – | –
O=c1oc2cc(N3CCNCC3)ccc2cc1-c1ccncc1 [Compound 27, 7-(piperazin-1-yl)-3-(pyridin-4-yl)-2H-chromen-2-one] | 212 to 214 | – | * (maximum fold increase of ≤1.2) | – | – | 1 to 3

Second part, led by results:

melting point [°C] | Compound | EC (1.5-fold) [1, 2] [µM] | maximum fold (Fold) increase of Smn protein (Smn protein) | EC1.5x (concentration giving 1.5-fold Smn protein increase) (Smn protein) [nM] | EC1.5x for production of full length SMN2 mRNA [1, 2] | EC (1.5-fold) ([1]; 24 h) [µM]
177 to 180 | Cc1ccc2nc(-c3cc4ccc(N5CCNC(C)(C)C5)cc4oc3=O)cn2c1 [Compound 222, 7-(3,3-dimethylpiperazin-1-yl)-3-(6-methylimidazo[1,2-a]pyridin-2-yl)-2H-chromen-2-one] | 1 to 3 | * (maximum fold increase of ≤1.2) | – | – | –
216 to 220 | CC1(C)CN(c2ccc3cc(-c4cn5cccc(Cl)c5n4)c(=O)oc3c2)CCN1 [Compound 249, 3-(8-chloroimidazo[1,2-a]pyridin-2-yl)-7-(3,3-dimethylpiperazin-1-yl)-2H-chromen-2-one] | 0.3 to 1 | ** (fold increase between >1.2 and ≤1.35) | – | – | –
250 to 252 | C[C@@H]1CN(c2ccc3cc(-c4cn5cnccc5n4)c(=O)oc3c2)C[C@H](C)N1 [Compound 459, 7-[(3R,5S)-3,5-dimethylpiperazin-1-yl]-3-(imidazo[1,2-c]pyrimidin-2-yl)-2H-chromen-2-one] | < 0.1 | *** (fold increase between >1.35 and ≤1.5) | 3000 to 10000 | – | –
195 to 203 | Cc1csc(-c2cc3ccc(N4CCCNCC4)cc3oc2=O)n1 [Compound 284, 7-(1,4-diazepan-1-yl)-3-(4-methyl-1,3-thiazol-2-yl)-2H-chromen-2-one] | 1 to 3 | * (maximum fold increase of ≤1.2) | – | – | –
135 to 137 | Cc1cccc(Nc2cc3ccc(N4CCNCC4)cc3oc2=O)n1 [Compound 64, 3-[(6-methylpyridin-2-yl)amino]-7-(piperazin-1-yl)-2H-chromen-2-one] | 1 to 3 | * (maximum fold increase of ≤1.2) | – | – | –
254 to 263 | C[C@H]1CN(c2ccc3cc(-c4cn5cc(C6CC6)cc(F)c5n4)c(=O)oc3c2)CCN1 [Compound 498, 3-(6-cyclopropyl-8-fluoroimidazo[1,2-a]pyridin-2-yl)-7-[(3S)-3-methylpiperazin-1-yl]-2H-chromen-2-one] | 0.3 to 1 | * (maximum fold increase of ≤1.2) | – | – | –
246 to 252 | Cc1cn2cc(-c3cc4ccc(N5C[C@H]6CCCN[C@H]6C5)cc4oc3=O)nc2c(C)n1 [Compound 781, 3-(6,8-dimethylimidazo[1,2-a]pyrazin-2-yl)-7-[(4aR,7aR)-octahydro-6H-pyrrolo[3,4-b]pyridin-6-yl]-2H-chromen-2-one] | – | ** (fold increase between >1.2 and ≤1.35) | – | ***** (EC1.5x≤0.1 μM) | –
219 to 226 | Cc1cn2cc(-c3cc4ccc(N5C[C@@H]6C[C@H]5CN6C)cc4oc3=O)nc2c(C)n1 [Compound 696, 3-(6,8-dimethylimidazo[1,2-a]pyrazin-2-yl)-7-[(1S,4S)-5-methyl-2,5-diazabicyclo[2.2.1]hept-2-yl]-2H-chromen-2-one] | < 0.1 | ***** (fold increase >1.65) | < 300 | – | –
211 to 215 | CCC1CN(c2ccc3cc(-c4cn5cc(C)nc(C)c5n4)c(=O)oc3c2)CCN1 (stereo not drawn) [Compound 665, 3-(6,8-dimethylimidazo[1,2-a]pyrazin-2-yl)-7-(3-ethylpiperazin-1-yl)-2H-chromen-2-one] | < 0.1 | ***** (fold increase >1.65) | < 300 | – | –
236 | Cc1ccn2cc(-c3cc4ccc(N5CCCNCC5)cc4oc3=O)nc2c1 [Compound 216, 7-(1,4-diazepan-1-yl)-3-(7-methylimidazo[1,2-a]pyridin-2-yl)-2H-chromen-2-one] | 0.3 to 1 | *** (fold increase between >1.35 and ≤1.5) | – | – | –
284 to 285 | CN1CCN(c2ccc3cc(-c4cn5ncccc5n4)c(=O)oc3c2)CC1 [Cpd 128, 3-(imidazo[1,2-b]pyridazin-2-yl)-7-(4-methylpiperazin-1-yl)-2H-chromen-2-one] | 1 to 3 | *** (fold increase between >1.35 and ≤1.5) | 3000 to 10000 | – | –
296 to 306 | Cc1cc(F)c2nc(-c3cc4ccc(N5CCN6CCC[C@@H]6C5)cc4oc3=O)cn2c1 [Compound 611, 3-(8-fluoro-6-methylimidazo[1,2-a]pyridin-2-yl)-7-[(8aR)-hexahydropyrrolo[1,2-a]pyrazin-2(1H)-yl]-2H-chromen-2-one] | 0.3 to 1 | **** (fold increase between >1.5 and ≤1.65) | 1000 to 3000 | – | –
196 to 198 | O=c1oc2cc(N3CCNCC3)ccc2cc1-c1cn2cccc(Cl)c2n1 [Compound 83, 3-(8-chloroimidazo[1,2-a]pyridin-2-yl)-7-(piperazin-1-yl)-2H-chromen-2-one] | 0.3 to 1 | **** (fold increase between >1.5 and ≤1.65) | 1000 to 3000 | – | –
185 to 189 | CCc1cn2cc(-c3cc4ccc(N5CCCNCC5)cc4oc3=O)nc2s1 [Compound 430, 7-(1,4-diazepan-1-yl)-3-(2-ethylimidazo[2,1-b][1,3]thiazol-6-yl)-2H-chromen-2-one] | 1 to 3 | * (maximum fold increase of ≤1.2) | – | – | –
